Here are results for 13 compounds from patent US7601734B2, “Cyclic amine compound” (Taisho Pharmaceutical Co., Ltd., priority 2004, dated 2009).

The IC50 is the point on the concentration scale where inhibition reaches its midpoint. Usually pIC50 stands for the negative decadic logarithm of the IC50, by convention in mol/L. By melting point is commonly meant the temperature of the solid-liquid transition.

In one series the target is T1, human α2A-adrenoceptor (Homo sapiens, UniProt P08913).
T1 construct: expressed in transfected cells; host or cells: COS-7 cells
T1 sequence (P08913 1-465): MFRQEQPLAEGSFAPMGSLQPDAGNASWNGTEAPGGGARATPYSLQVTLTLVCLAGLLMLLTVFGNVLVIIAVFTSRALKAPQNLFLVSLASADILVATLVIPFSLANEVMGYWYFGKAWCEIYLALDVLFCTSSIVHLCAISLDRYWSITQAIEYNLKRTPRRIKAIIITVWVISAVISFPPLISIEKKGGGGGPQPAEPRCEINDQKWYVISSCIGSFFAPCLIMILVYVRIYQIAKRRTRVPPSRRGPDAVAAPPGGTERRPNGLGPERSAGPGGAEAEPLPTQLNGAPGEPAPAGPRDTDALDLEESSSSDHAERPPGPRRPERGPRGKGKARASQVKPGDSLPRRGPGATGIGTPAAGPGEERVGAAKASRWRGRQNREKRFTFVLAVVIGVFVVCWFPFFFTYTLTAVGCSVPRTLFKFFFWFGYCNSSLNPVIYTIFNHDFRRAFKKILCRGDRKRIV
Description: α2A-Adrenoceptor binding experiment ([3H] MK912 displacement, crude membrane sample). Conditions: membranes of human α2A-adrenoceptor expressing COS-7 cells; [3H] MK912 1 nM; 25° C., 60 minutes; read-out: Ability to Inhibit (IC50, nM) α 2A. How it is done:
The subject experiment was performed by a method improved from the method described in Uhlen et al., Journal of Pharmacology and Experimental Therapeutics (1994), 1558-1565. Briefly, human α2A-adrenoceptor expressing COS-7 cells were homogenized with 50 mM Tris-HCl buffer (pH 7.4) containing 12.5 mM magnesium hydrochloride and 1 mM EDTA. The resultant homogenate was centrifuged at 48,000×g for 20 minutes at 4° C. twice. The precipitate was suspended in 50 mM Tris-HCl buffer (pH 7.4) containing 12.5 mM magnesium hydrochloride and 1 mM EDTA to give a protein concentration of 200 μg/ml. This suspension was used in binding experiments as a crude membrane sample. The crude membrane sample (0.1 ml, 20 μg protein, reaction volume 0.2 ml) was reacted with [^3H] MK912 (final concentration 1 nM) at 25° C. for 60 minutes. After completion of the reaction, the reaction mixture was vacuum filtered on GF/C glass fiber plate pre-immersed in 0.3% polyethyleneimine for 2 hours, using a Filtermate Harvester. Microscinti-0 (40 μl) was added to the plate, and the radioactivity was measured with Top Count (PerkinElmer). The amount of binding in the presence of 10 μM rauwolcine was taken as non-specific binding. The value obtained by subtracting non-specific binding from the total binding in the absence of 10 μM rauwolcine was taken as specific binding. Each of the test compounds was dissolved in 100% DMSO solution and added to the membrane sample simultaneously with [^3H] MK912. IC50 values were calculated from inhibition curves at concentrations from 1 nM to 10 μM.

In another series the target is T2, human α2C-adrenoceptor (Homo sapiens, UniProt P18825).
T2 construct: expressed in transfected cells; host or cells: COS-1 cells
T2 sequence (P18825 1-462): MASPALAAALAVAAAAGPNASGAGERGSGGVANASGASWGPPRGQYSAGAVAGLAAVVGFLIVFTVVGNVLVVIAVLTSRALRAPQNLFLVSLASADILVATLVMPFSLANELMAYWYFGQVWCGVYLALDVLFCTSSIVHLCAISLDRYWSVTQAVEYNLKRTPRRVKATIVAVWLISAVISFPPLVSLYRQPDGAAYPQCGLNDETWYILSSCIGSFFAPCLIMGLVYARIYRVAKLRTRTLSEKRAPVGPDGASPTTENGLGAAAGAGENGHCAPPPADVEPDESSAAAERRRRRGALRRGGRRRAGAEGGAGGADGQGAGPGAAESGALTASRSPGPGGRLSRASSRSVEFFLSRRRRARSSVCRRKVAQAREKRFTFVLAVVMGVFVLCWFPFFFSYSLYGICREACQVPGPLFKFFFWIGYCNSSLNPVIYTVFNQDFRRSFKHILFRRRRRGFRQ
The series can be described thus: α2C-Adrenoceptor binding experiment ([3H] MK912 displacement, crude membrane sample). Conditions: for IC50: membranes of human α2C-adrenoceptor expressing COS-1 cells, [3H] MK912 0.08 nM, 25° C., 60 minutes, read-out: Ability to Inhibit (IC50, nM) α 2C. Here is the method: The subject experiment was performed by a method improved from the method described in Uhlen et al., Journal of Pharmacology and Experimental Therapeutics (1994), 1558-1565. Briefly, human α2C-adrenoceptor expressing COS-1 cells were homogenized with 50 mM Tris-HCl buffer (pH 7.4) containing 12.5 mM magnesium hydrochloride and 1 mM EDTA. The resultant homogenate was centrifuged at 48,000×g for 20 minutes at 4° C. twice. The precipitate was suspended in 50 mM Tris-HCl buffer (pH 7.4) containing 12.5 mM magnesium hydrochloride and 1 mM EDTA to give a protein concentration of 150 μg/ml. This suspension was used in binding experiments as a crude membrane sample. The crude membrane sample (0.5 ml, 75 μg protein) was reacted with [^3H] MK912 (final concentration 0.08 nM) at 25° C. for 60 minutes. After completion of the reaction, the reaction mixture was vacuum filtered on GF/B glass fiber filter pre-immersed in 0.3% polyethyleneimine for 2 hours, using a cell harvester for binding experiments. The filter was placed in a glass vial containing 8 ml of Aquasol 2, and the radioactivity thereof was measured with a liquid scintillation counter. The amount of binding in the presence of 10 μM rauwolcine was taken as non-specific binding. The value obtained by subtracting non-specific binding from the total binding in the absence of 10 μM rauwolcine was taken as specific binding. Each of the test compounds was dissolved in 100% dimethyl sulfoxide solution and added to the membrane sample simultaneously with [^3H] MK912. IC50 values were calculated from inhibition curves at concentrations from 0.1 nM to 1 μM.

Structures are written as SMILES. pIC50: −log10 of the molar value. Like-named read-outs stand apart in the source and are kept apart here.

As for `N#CC(CCCN1CCc2sc3ccccc3c2C1)(c1ccccc1)c1ccccc1` [Compound 7, 5-(3,4-dihydro-[1]-benzothieno[3,2-C]pyridine-2(1H)-yl)-2,2-diphenyl-pentanenitrile], the IC50 amounted to 1480 nM on human α2A-adrenoceptor and 299 nM on human α2C-adrenoceptor.
As to `N#CC1(CCCN2CCc3oc4ccccc4c3C2)c2ccccc2Oc2ccccc21` [Compound 16, 9-[3-(3,4-dihydro-[1]-benzofuro[3,2-C]pyridine-2(1H)-yl)-propyl]-9H-xanthene-carbonitrile], the values for the IC50 on human α2A-adrenoceptor and on human α2C-adrenoceptor were 102 nM and 12 nM, respectively.
With `N#CC(CCCN1CCc2oc3ccc(F)cc3c2C1)(c1ccccc1)c1ccccc1` [Compound 10, 5-(8-fluoro-3,4-dihydro-[1]-benzofuro[3,2-C]pyridine-2(1H)-yl)-2,2-diphenyl-pentanenitrile], on human α2A-adrenoceptor, the IC50 is 504 nM. Also, on human α2C-adrenoceptor, the negative-log IC50 (pIC50) was 7.55.
`Cl.N#CC(CCCN1CCc2oc3ccccc3c2C1)(c1ccccc1)c1ccccc1` [Compound 5, 5-(3,4-dihydro[1]benzofuro[3,2-c]pyridine-2(1H)-yl)-2,2-diphenylpentanenitrile] came in with a melting point of 195 to 199 °C. Moreover, the IC50 at human α2A-adrenoceptor came to 139 nM. Besides, the IC50 on human α2C-adrenoceptor is 5.7 nM.
With `COC(=O)C(CCCN1CCc2oc3ccccc3c2C1)(c1ccc(F)cc1)c1ccc(F)cc1` [Compound 1, Methyl 5-(3,4-dihydro[1]benzofuro[3,2-c]pyridine-2(1H)-yl)-2,2-bis(4-fluorophenyl)pentanoate], the results for the IC50 on human α2A-adrenoceptor and at human α2C-adrenoceptor were 416 nM and 28 nM, respectively.
The corresponding values for `Cn1c2c(c3ccccc31)CN(CCCC(C#N)(c1ccccc1)c1ccccc1)CC2` [Compound 9, 5-(5-methyl-1,3,4,5-tetrahydro-2H-pyrido[4,3-b]indole-2-yl)-2,2-diphenyl-pentanenitrile] are 4830 nM and 280 nM.
The matching figures for `N#CC(CCCN1CCc2oc3ccc(Cl)cc3c2C1)(c1ccccc1)c1ccccc1` [Compound 11, 5-(8-chloro-3,4-dihydro-[1]-benzofuro[3,2-C]pyridine-2(1H)-yl)-2,2-diphenyl-pentanenitrile]: 1720 nM and 203 nM.
The corresponding values for `O=C(O)C(CCCN1CCc2oc3ccccc3c2C1)(c1ccc(F)cc1)c1ccc(F)cc1` [Compound 2, 5-(3,4-dihydro[1]benzofuro[3,2-c]pyridine-2(1H)-yl)-2,2-bis(4-fluorophenyl)pentanoic acid] are 935 nM and 142 nM.
`Cl.NC(=O)C(CCCN1CCc2oc3ccccc3c2C1)(c1ccc(F)cc1)c1ccc(F)cc1` [Compound 3, 5-(3,4-dihydro[1]benzofuro[3,2-c]pyridine-2(1H)-yl)-2,2-bis(4-fluorophenyl)pentanoic acid amide]: the melting point lay within 174 to 179.5 °C. In addition, the IC50 on human α2A-adrenoceptor came to 204 nM. Moreover, the IC50 on human α2C-adrenoceptor amounted to 5.8 nM.
The matching figures for `Cl.N#CC(CCCN1CCc2oc3ccccc3c2C1)(c1ccc(F)cc1)c1ccc(F)cc1` [Compound 4, 5-(3,4-dihydro[1]benzofuro[3,2-c]pyridine-2(1H)-yl)-2,2-bis(4-fluorophenyl)pentanenitrile]: 113.5 to 120.5 °C, 136 nM and 9.3 nM.
For `COc1ccc2oc3c(c2c1)CN(CCCC(C#N)(c1ccccc1)c1ccccc1)CC3` [Compound 13, 5-(8-methoxy-3,4-dihydro-[1]-benzofuro[3,2-C]pyridine-2(1H)-yl)-2,2-diphenyl-pentanenitrile], the IC50 on human α2A-adrenoceptor was 563 nM; on human α2C-adrenoceptor, 53 nM.
The corresponding values for `c1ccc(C(CCCN2CCc3oc4ccccc4c3C2)c2ccccc2)cc1` [Compound 15, 2-(4,4-diphenylbutyl)-1,2,3,4-tetrahydro-[1]-benzofuro[3,2-C]pyridine] are 243 nM and 10 nM.
The matching figures for `N#CC(CCCN1CCc2[nH]c3ccccc3c2C1)(c1ccccc1)c1ccccc1` [Compound 8, 2,2-diphenyl-5-(1,3,4,5-tetrahydro-2H-pyrido[4,3-b]indole-2-yl)-pentanenitrile]: 1290 nM and 121 nM.
